From paper PMC11310081, “Deep-learning-enabled antibiotic discovery through molecular de-extinction” (Nature Biomedical Engineering, 2024)
≈ marks a conversion by molar mass, not a printed value. Entries after “also recorded” stand apart in the source; their conditions may differ. Peptide text beside a SMILES is read from it.

Legend:
A. baumannii ATCC 19606 = test: Neutropenic thigh infection mouse model; type: in vivo, CD-1 mice; conditions: for bacterial count, thigh infection (Panel 6d): neutropenic CD-1 mice
Procedure: Six-week-old female CD-1 mice from Charles River (stock number 18679700-022) were rendered neutropenic by two doses of cyclophosphamide (150 mg kg^−1) applied intraperitoneally with an interval of 72 h. One day after the last dose of cyclophosphamide, the mice were injected intramuscularly in their right thigh with a bacterial load of 10^6 c.f.u. ml^−1 of A. baumannii ATCC 19606 cells. The bacteria had been grown in LB broth, washed twice with PBS (pH 7.4), and resuspended to the desired concentration. Two hours after bacterial injection, peptides resuspended in water were administered intraperitoneally, and the untreated mice were inoculated with the same volume of deionized water. Before each injection, mice were anaesthetized with isoflurane and monitored for respiratory rate and pedal reflexes. Next, we monitored the establishment of the infection and euthanized the mice. The infected area was excised 2 days and 4 days post infection, homogenized using a bead beater for 20 min (25 Hz), and then serially diluted tenfold for quantification of colony-forming units in MacConkey agar plates. The experiments were performed with six mice per group. All experiments were performed blindly, and no animal subjects were excluded from the analysis. The thigh infection mouse model was approved by the University Laboratory Animal Resources from the University of Pennsylvania (protocol 807055). Statistical significance was determined using one-way ANOVA followed by Dunnett’s test in log10-transformed data to mitigate the effect of outliers; P values are presented for each group, with all groups being compared to the untreated control group.

K. pneumoniae ATCC 13883 = type: cell-based, Klebsiella pneumoniae; conditions: ATCC 13883, 20 h
Description: (§1) The following Gram-negative bacteria were used in our study: A. baumannii ATCC 19606, E. coli ATCC 11775, E. coli AIC221 (E. coli MG1655 phnE_2::FRT), E. coli AIC222 (E. coli MG1655 pmrA53 phnE_2::FRT (colistin resistant)), K. pneumoniae ATCC 13883, P. aeruginosa PAO1 and P. aeruginosa PA14. The following Gram-positive bacteria were also used in our study: S. aureus ATCC 12600, S. aureus ATCC BAA-1556 (methicillin-resistant strain), E. faecalis ATCC 700802 (vancomycin-resistant strain) and E. faecium ATCC 700221 (vancomycin-resistant strain). Bacteria were grown from frozen stocks and plated on Luria–Bertani (LB) or Pseudomonas isolation agar plates (P. aeruginosa strains) and incubated overnight at 37 °C. After the incubation period, a single colony was transferred to 5 ml of LB medium, and cultures were incubated overnight (16 h) at 37 °C. The following day, an inoculum was prepared by diluting the overnight cultures 1:100 in 5 ml of the respective media and incubating them at 37 °C until bacteria reached logarithmic phase (OD600 = 0.3–0.5).
(§2) The in vitro antimicrobial activity of the peptides was assessed by using the broth microdilution assay. […] Aqueous solutions of the peptides were added to the plate at concentrations ranging from 1 to 64 μmol l^−1. […] The optical density of the plates was measured at 600 nm using a spectrophotometer. All assays were done as three biological replicates.

[1] = tested on: E. faecium ATCC 700221 (vancomycin-resistant strain); type: cell-based, Enterococcus faecium; conditions: ATCC 700221, 20 h
Description: as §1, §2

E. coli AIC221 = type: cell-based, Escherichia coli; conditions: AIC221, 20 h
Description: as §1, §2

E. coli ATCC 11775 = type: cell-based, Escherichia coli; conditions: ATCC 11775, 20 h
Description: as §1, §2

S. aureus ATCC 12600 = type: cell-based, Staphylococcus aureus; conditions: ATCC 12600, 20 h
Description: as §1, §2

[2] = tested on: S. aureus ATCC BAA-1556 (methicillin-resistant strain); type: cell-based, Staphylococcus aureus; conditions: ATCC BAA-1556, 20 h
Description: as §1, §2

[3] = tested on: E. faecalis ATCC 700802 (vancomycin-resistant strain); type: cell-based, Enterococcus faecalis; conditions: ATCC 700802, 20 h
Description: as §1
as §2, with “All assays were done as three biological replicates.” left out

[4] = A. baumannii ATCC 19606, day 2, replicate 1
[5] = A. baumannii ATCC 19606, day 2, replicate 2
[6] = A. baumannii ATCC 19606, day 2, replicate 3
[7] = A. baumannii ATCC 19606, day 2, replicate 4
[8] = A. baumannii ATCC 19606, day 2, replicate 5
[9] = A. baumannii ATCC 19606, day 2, replicate 6
[10] = A. baumannii ATCC 19606, day 4, replicate 1
[11] = A. baumannii ATCC 19606, day 4, replicate 2
[12] = A. baumannii ATCC 19606, day 4, replicate 3
[13] = A. baumannii ATCC 19606, day 4, replicate 4
[14] = A. baumannii ATCC 19606, day 4, replicate 5
[15] = A. baumannii ATCC 19606, day 4, replicate 6

Compound | bacterial count, thigh infection (Panel 6d) (A. baumannii ATCC 19606; [4]) | bacterial count, thigh infection (Panel 6d) (A. baumannii ATCC 19606; [5]) | bacterial count, thigh infection (Panel 6d) (A. baumannii ATCC 19606; [6]) | bacterial count, thigh infection (Panel 6d) (A. baumannii ATCC 19606; [7]) | bacterial count, thigh infection (Panel 6d) (A. baumannii ATCC 19606; [8]) | bacterial count, thigh infection (Panel 6d) (A. baumannii ATCC 19606; [9]) | bacterial count, thigh infection (Panel 6d) (A. baumannii ATCC 19606; [10]) | bacterial count, thigh infection (Panel 6d) (A. baumannii ATCC 19606; [11]) | bacterial count, thigh infection (Panel 6d) (A. baumannii ATCC 19606; [12]) | bacterial count, thigh infection (Panel 6d) (A. baumannii ATCC 19606; [13]) | bacterial count, thigh infection (Panel 6d) (A. baumannii ATCC 19606; [14]) | bacterial count, thigh infection (Panel 6d) (A. baumannii ATCC 19606; [15]) | Reduction in bacterial counts, 2 days post treatment (A. baumannii ATCC 19606; neutropenic thigh infection, single intraperitoneal dose, n = 6) | Minimal inhibitory concentration, K. pneumoniae ATCC133883 (K. pneumoniae ATCC 13883) | Minimal inhibitory concentration, E. faecium ATCC700221-VRE [1] | Minimal inhibitory concentration, E. coli AIC221 (E. coli AIC221) | Minimal inhibitory concentration, E. coli ATCC11775 (E. coli ATCC 11775) | Minimal inhibitory concentration, S. aureus ATCC12600 (S. aureus ATCC 12600) | Minimal inhibitory concentration, S. aureus ATCC BAA-1556-MRSA [2] | Minimal inhibitory concentration, E. faecalis ATCC700802-VRE [3]
CC(C)C[C@H](NC(=O)CNC(=O)[C@H](CCCNC(=N)N)NC(=O)[C@H](CCCCN)NC(=O)[C@H](CCCNC(=N)N)NC(=O)[C@@H](N)CCCCN)C(=O)N[C@@H](CCCCN)C(=O)N[C@@H](CC(C)C)C(=O)N[C@@H](C)C(=O)N[C@H](C(=O)N[C@@H](C)C(=O)N[C@@H](CC(C)C)C(=O)N[C@@H](CO)C(=O)N[C@@H](CC(C)C)C(=O)N[C@@H](CC(N)=O)C(=O)N[C@@H](CC(N)=O)C(=O)N[C@@H](CCCCN)C(=O)N[C@@H](Cc1ccccc1)C(=O)O)[C@@H](C)O [Mylodonin-2] (H-KRKRGLKLATALSLNNKF-OH; N-terminus and C-terminus assumed) | 1200000 | 2400000 | 1000000 | 1800000 | 200000 | 400000 | 1.2e+007 | 1.2e+008 | 2.0e+007 | 2.0e+007 | 4.0e+007 | 2.0e+007 | as much as polymyxin B; also recorded: most potent activity, which was comparable to that of the positive control antibiotic, polymyxin B | – | – | – | – | – | – | –
CC[C@H](C)[C@H](NC(=O)[C@@H](N)CC(C)C)C(=O)N[C@H](C(=O)N[C@@H](CS)C(=O)N[C@@H](Cc1ccccc1)C(=O)N[C@@H](Cc1ccccc1)C(=O)N[C@@H](CCCNC(=N)N)C(=O)N[C@@H](CCC(N)=O)C(=O)N[C@@H](CC(C)C)C(=O)N[C@@H](CCCCN)C(=O)N[C@@H](Cc1ccccc1)C(=O)N[C@@H](Cc1c[nH]cn1)C(=O)N[C@@H](Cc1ccccc1)C(=O)O)C(C)C [Megalocerin-1] (H-LIVCFFRQLKFHF-OH; N-terminus and C-terminus assumed) | 1.2e+008 | 2.0e+007 | 2.2e+008 | 2.0e+008 | 1.2e+008 | 2.8e+008 | 6.0e+008 | 1.0e+009 | 4.0e+007 | 6.0e+007 | 4.0e+007 | 2.0e+007 | – | 64 µM (≈ 109 µg/mL) | 8 µM (≈ 13.6 µg/mL) | – | – | – | – | –
CC[C@H](C)[C@H](N)C(=O)N[C@@H](Cc1ccccc1)C(=O)N[C@@H](CC(C)C)C(=O)N[C@@H](Cc1c[nH]cn1)C(=O)N[C@@H](CC(C)C)C(=O)N[C@@H](CCCCN)C(=O)N[C@H](C(=O)N[C@@H](CC(C)C)C(=O)N[C@@H](CCCCN)C(=O)N[C@H](C(=O)N[C@H](C(=O)N[C@@H](CCCNC(=N)N)C(=O)N[C@@H](CC(C)C)C(=O)N[C@@H](CC(C)C)C(=O)O)[C@@H](C)CC)[C@@H](C)CC)[C@@H](C)CC [Elephasin-2] (H-IFLHLKILKIIRLL-OH; N-terminus and C-terminus assumed) | 2e+007 | 4e+007 | 4e+007 | 4e+007 | 8e+007 | 1e+008 | 1400000 | 1000000 | 4000000 | 1000000 | 800000 | 4000000 | – | – | 1 µM (≈ 1.73 µg/mL) | 2 µM (≈ 3.47 µg/mL) | 16 µM (≈ 27.7 µg/mL) | 1 µM (≈ 1.73 µg/mL) | 1 µM (≈ 1.73 µg/mL) | 8 µM (≈ 13.9 µg/mL)
CC[C@H](C)[C@H](NC(=O)[C@H](CO)NC(=O)[C@H](CCCNC(=N)N)NC(=O)[C@H](C)NC(=O)[C@H](Cc1c[nH]cn1)NC(=O)[C@H](CC(C)C)NC(=O)[C@H](CS)NC(=O)[C@H](C)NC(=O)[C@@H](N)CCCNC(=N)N)C(=O)N[C@@H](C)C(=O)N[C@@H](CCCNC(=N)N)C(=O)N[C@@H](CC(C)C)C(=O)N[C@@H](Cc1c[nH]cn1)C(=O)N[C@@H](CCCCN)C(=O)N[C@@H](CCCNC(=N)N)C(=O)N[C@@H](Cc1c[nH]c2ccccc12)C(=O)N[C@@H](CCCNC(=N)N)C(=O)N1CCC[C@H]1C(=O)N[C@H](C(=O)N[C@@H](Cc1c[nH]cn1)C(=O)N[C@@H](CCC(N)=O)C(=O)NCC(=O)N[C@@H](CC(C)C)C(=O)NCC(=O)N[C@@H](CC(C)C)C(=O)N[C@@H](CCCCN)C(=O)O)C(C)C [Mammuthusin-2] (H-RACLHARSIARLHKRWRPVHQGLGLK-OH; N-terminus and C-terminus assumed) | 800000 | 2e+007 | 4000000 | 2000000 | 1e+007 | 4000000 | 800000 | 600000 | 6000000 | 6000000 | 2000000 | 4000000 | – | – | – | – | – | – | – | –
